This note sets out measurements from the OligoGym collection.

Oligonucleotides are written 5' to 3', each unit as a sugar letter and its base; * is a phosphorothioate linkage, no mark a phosphodiester; rarer units and linkages stand in square brackets, end groups in braces. Plain capitals give the bases only. d = 2'-deoxy (DNA); r = 2'-OH (RNA)

For one data set, the target named is UBE2J1. In words: reporter assay of Huesken 2005. As to conditions: siRNA. (A reporter such as luciferase makes a cellular process visible.)
Another data set addresses UBE2L3. The data set is described as follows: reporter assay of Huesken 2005. The following applies: siRNA.
Note: test concentration or dose not given here.

Consider “sense rGrCrArGrArArGrUrCrArArUrUrCrArUrCrUrGdTdT / antisense rCrArGrArUrGrArArUrUrGrArCrUrUrCrUrGrCdCdT”, for which the normalised inhibition (eCFP-eYFP dual reporter) in the data set with UBE2J1 was found to be 54.4%.
The same measure, in the same setting: in the case of “sense rUrArArUrGrGrUrCrGrArUrUrUrGrArArGrUrGdTdT / antisense rCrArCrUrUrCrArArArUrCrGrArCrCrArUrUrAdGdC” it was 46.3%; in that of “sense rUrUrCrArCrUrArArCrUrGrArUrUrUrArCrArAdTdT / antisense rUrUrGrUrArArArUrCrArGrUrUrArGrUrGrArAdAdA”, 67.5%.
As for “sense rGrCrUrGrArCrCrUrArGrCrUrGrArArGrArArUdTdT / antisense rArUrUrCrUrUrCrArGrCrUrArGrGrUrCrArGrCdCdC”, the normalised inhibition (eCFP-eYFP dual reporter) with UBE2L3 worked out at 70.1%.
For “sense rCrCrArArGrUrArArUrCrCrArGrUrCrCrCrUrCdTdT / antisense rGrArGrGrGrArCrUrGrGrArUrUrArCrUrUrGrGdTdC”, in the data set with UBE2L3, the normalised inhibition (eCFP-eYFP dual reporter) turned out to be 61.4%.
Still for that read-out and setting: in the case of “sense rUrCrCrArGrGrUrUrGrArUrGrArArGrCrUrArAdTdT / antisense rUrUrArGrCrUrUrCrArUrCrArArCrCrUrGrGrAdTdG” it was 112%.
On the same count and under the same terms, the same measure for “sense rUrArUrCrArCrCrCrArArArCrArUrCrGrArCrGdTdT / antisense rCrGrUrCrGrArUrGrUrUrUrGrGrGrUrGrArUrAdGdA”: 57%; for “sense rArGrCrCrUrGrArGrCrArCrCrCrGrCrUrUrCrGdTdT / antisense rCrGrArArGrCrGrGrGrUrGrCrUrCrArGrGrCrUdGdG”: 46.3%; for “sense rUrArCrCrCrArUrUrCrArArArCrCrArCrCrGrAdTdT / antisense rUrCrGrGrUrGrGrUrUrUrGrArArUrGrGrGrUrAdCdT”: 71.8%.
With “sense rGrGrCrArArGrGrGrCrUrUrArUrUrGrUrUrCrCdTdT / antisense rGrGrArArCrArArUrArArGrCrCrCrUrUrGrCrCdAdA”, the normalised inhibition (eCFP-eYFP dual reporter) in the data set with UBE2L3 stood at 79.4%.
Same read-out and setting: in the case of “sense rUrArUrUrGrArCrUrUrGrGrCrArArGrGrGrCrUdTdT / antisense rArGrCrCrCrUrUrGrCrCrArArGrUrCrArArUrAdAdA” it was 75.3%; in that of “sense rCrCrGrArArGrArUrCrArCrArUrUrUrArArArAdTdT / antisense rUrUrUrUrArArArUrGrUrGrArUrCrUrUrCrGrGdTdG”, 83.4%.
The same measure, in the same setting: in the case of “sense rArArCrCrGrArCrCrArArGrUrArArUrCrCrArGdTdT / antisense rCrUrGrGrArUrUrArCrUrUrGrGrUrCrGrGrUrUdTdT” it was 66.6%; in that of “sense rArArGrCrCrArGrCrArArCrCrArArArArCrCrGdTdT / antisense rCrGrGrUrUrUrUrGrGrUrUrGrCrUrGrGrCrUrUdCdC”, 41.7%; in that of “sense rCrArGrCrArGrArGrUrArCrCrCrArUrUrCrArAdTdT / antisense rUrUrGrArArUrGrGrGrUrArCrUrCrUrGrCrUrGdGdA”, 90%.
Same read-out and setting: the same measure for “sense rArArArCrArArArGrArUrCrUrArUrCrArCrCrCdTdT / antisense rGrGrGrUrGrArUrArGrArUrCrUrUrUrGrUrUrUdTdA”: 50.1%; for “sense rCrCrArGrUrArArUrUrArGrUrGrCrCrGrArArAdTdT / antisense rUrUrUrCrGrGrCrArCrUrArArUrUrArCrUrGrGdCdA”: 82.8%; for “sense rArUrCrGrArCrGrArArArArGrGrGrGrCrArGrGdTdT / antisense rCrCrUrGrCrCrCrCrUrUrUrUrCrGrUrCrGrArUdGdT”: 32%.
As to “sense rCrUrGrArGrCrArCrCrCrGrCrUrUrCrGrGrGrCdTdT / antisense rGrCrCrCrGrArArGrCrGrGrGrUrGrCrUrCrArGdGdC”, the normalised inhibition (eCFP-eYFP dual reporter) with UBE2L3 was 51.7%.
On the same count and under the same terms, in the case of “sense rCrUrGrUrCrUrGrCrCrArGrUrArArUrUrArGrUdTdT / antisense rArCrUrArArUrUrArCrUrGrGrCrArGrArCrArGdAdC” it was 52.5%; in that of “sense rUrUrCrArArArCrCrArCrCrGrArArGrArUrCrAdTdT / antisense rUrGrArUrCrUrUrCrGrGrUrGrGrUrUrUrGrArAdTdG”, 65.9%; in that of “sense rCrCrUrCrCrArUrArUrGrArUrArArGrGrGrArGdTdT / antisense rCrUrCrCrCrUrUrArUrCrArUrArUrGrGrArGrGdGdT”, 81.2%.
Still for that read-out and setting: the same measure for “sense rCrCrGrUrArArCrArUrCrCrArGrGrUrUrGrArUdTdT / antisense rArUrCrArArCrCrUrGrGrArUrGrUrUrArCrGrGdAdA”: 61.4%.
With “sense rCrCrCrGrCrUrUrCrGrGrGrCrUrGrArCrCrUrAdTdT / antisense rUrArGrGrUrCrArGrCrCrCrGrArArGrCrGrGrGdTdG”, the normalised inhibition (eCFP-eYFP dual reporter) in the data set with UBE2L3 turned out to be 62.3%.
On the same count and under the same terms, the same measure for “sense rArGrArUrCrUrArUrCrArCrCrCrArArArCrArUdTdT / antisense rArUrGrUrUrUrGrGrGrUrGrArUrArGrArUrCrUdTdT”: 73.1%; for “sense rUrCrArUrArGrCrArCrUrGrGrUrGrArArUrGrAdTdT / antisense rUrCrArUrUrCrArCrCrArGrUrGrCrUrArUrGrAdGdG”: 77.5%; for “sense rCrArArArGrArUrCrUrArUrCrArCrCrCrArArAdTdT / antisense rUrUrUrGrGrGrUrGrArUrArGrArUrCrUrUrUrGdTdT”: 82.8%.
On to “sense rArGrCrArCrCrCrGrCrUrUrCrGrGrGrCrUrGrAdTdT / antisense rUrCrArGrCrCrCrGrArArGrCrGrGrGrUrGrCrUdCdA”, for which, in the data set with UBE2L3, the normalised inhibition (eCFP-eYFP dual reporter) stood at 37.6%.
Still for that read-out and setting: the same measure for “sense rGrGrUrCrUrGrUrCrUrGrCrCrArGrUrArArUrUdTdT / antisense rArArUrUrArCrUrGrGrCrArGrArCrArGrArCrCdTdG”: 74.3%; for “sense rUrUrGrArCrUrUrGrGrCrArArGrGrGrCrUrUrAdTdT / antisense rUrArArGrCrCrCrUrUrGrCrCrArArGrUrCrArAdTdA”: 61.9%.
Still for that read-out and setting: the same measure for “sense rUrGrUrCrUrGrCrCrArGrUrArArUrUrArGrUrGdTdT / antisense rCrArCrUrArArUrUrArCrUrGrGrCrArGrArCrAdGdA”: 51.7%.
Same read-out and setting: the same measure for “sense rArUrUrGrArCrUrUrGrGrCrArArGrGrGrCrUrUdTdT / antisense rArArGrCrCrCrUrUrGrCrCrArArGrUrCrArArUdAdA”: 58.7%; for “sense rCrUrCrArUrArGrCrArCrUrGrGrUrGrArArUrGdTdT / antisense rCrArUrUrCrArCrCrArGrUrGrCrUrArUrGrArGdGdG”: 77.1%; for “sense rGrCrUrArArUrUrUrArUrUrGrArCrUrUrGrGrCdTdT / antisense rGrCrCrArArGrUrCrArArUrArArArUrUrArGrCdTdT”: 46.2%.
Take “sense rArArCrUrGrGrArArGrCrCrArGrCrArArCrCrAdTdT / antisense rUrGrGrUrUrGrCrUrGrGrCrUrUrCrCrArGrUrUdTdT”: the normalised inhibition (eCFP-eYFP dual reporter) with UBE2L3 was found to be 71.8%.
As to “sense rCrCrUrArGrCrUrGrArArGrArArUrArCrUrCrUdTdT / antisense rArGrArGrUrArUrUrCrUrUrCrArGrCrUrArGrGdTdC”, in the data set with UBE2L3, the normalised inhibition (eCFP-eYFP dual reporter) worked out at 63.9%.
Still for that read-out and setting: the same measure for “sense rArCrArUrCrGrArCrGrArArArArGrGrGrGrCrAdTdT / antisense rUrGrCrCrCrCrUrUrUrUrCrGrUrCrGrArUrGrUdTdT”: 64.5%; for “sense rCrArCrCrCrGrCrUrUrCrGrGrGrCrUrGrArCrCdTdT / antisense rGrGrUrCrArGrCrCrCrGrArArGrCrGrGrGrUrGdCdT”: 60%; for “sense rGrArCrCrUrArGrCrUrGrArArGrArArUrArCrUdTdT / antisense rArGrUrArUrUrCrUrUrCrArGrCrUrArGrGrUrCdAdG”: 102%.
Still for that read-out and setting: in the case of “sense rCrCrArArArCrArUrCrGrArCrGrArArArArGrGdTdT / antisense rCrCrUrUrUrUrCrGrUrCrGrArUrGrUrUrUrGrGdGdT” it was 59.4%; in that of “sense rGrGrArArGrCrCrArGrCrArArCrCrArArArArCdTdT / antisense rGrUrUrUrUrGrGrUrUrGrCrUrGrGrCrUrUrCrCdAdG”, 73%; in that of “sense rCrGrGrGrCrUrGrArCrCrUrArGrCrUrGrArArGdTdT / antisense rCrUrUrCrArGrCrUrArGrGrUrCrArGrCrCrCrGdAdA”, 61.3%.
Same read-out and setting: in the case of “sense rCrArArArArCrCrGrArCrCrArArGrUrArArUrCdTdT / antisense rGrArUrUrArCrUrUrGrGrUrCrGrGrUrUrUrUrGdGdT” it was 56.2%; in that of “sense rCrCrArArArArCrCrGrArCrCrArArGrUrArArUdTdT / antisense rArUrUrArCrUrUrGrGrUrCrGrGrUrUrUrUrGrGdTdT”, 84.6%; in that of “sense rGrCrArGrGrUrCrUrGrUrCrUrGrCrCrArGrUrAdTdT / antisense rUrArCrUrGrGrCrArGrArCrArGrArCrCrUrGrCdCdC”, 52.7%.
On to “sense rUrGrArUrArArGrGrGrArGrCrCrUrUrCrArGrAdTdT / antisense rUrCrUrGrArArGrGrCrUrCrCrCrUrUrArUrCrAdTdA”, for which the normalised inhibition (eCFP-eYFP dual reporter) with UBE2L3 was determined as 110%.
Take “sense rCrArGrGrUrUrGrArUrGrArArGrCrUrArArUrUdTdT / antisense rArArUrUrArGrCrUrUrCrArUrCrArArCrCrUrGdGdA”: in the data set with UBE2L3, the normalised inhibition (eCFP-eYFP dual reporter) turned out to be 96.7%.
The same measure, in the same setting: in the case of “sense rCrArGrCrArArCrCrArArArArCrCrGrArCrCrAdTdT / antisense rUrGrGrUrCrGrGrUrUrUrUrGrGrUrUrGrCrUrGdGdC” it was 60%; in that of “sense rCrArGrCrCrUrGrArGrCrArCrCrCrGrCrUrUrCdTdT / antisense rGrArArGrCrGrGrGrUrGrCrUrCrArGrGrCrUrGdGdG”, 37.1%.
